Like-named read-outs stand apart in the source and are kept apart here.
Columns and labels:
Drosophila suzukii [1] = assay type: in vivo; settings: vial; for Statistical comparison of mortalities in words: second experiment, 7 days, log-rank pairwise comparisons (FIG. 3); for Mortality (%) of flies when fed different sugar formulations: Table 1, first experiment; for Mortality (%) of flies when fed different erythritol and sucralose formulations: Table 2, second experiment
Method: Materials and Methods. Flies and sugars: Drosophila suzukii used in these experiments were from a colony maintained at 22±5° C. under a photoperiod of L:D 16:8 h, and a relative humidity of 60±5% RH at the Horticultural Crops Research Unit, USDA ARS in Corvallis, Oreg. Wildtype flies collected from infested fruits in Corvallis, Oreg. were used to start the colony. Standard rearing methods and diet are described by Woltz, J. M., et al., Journal of Applied Entomology, 139:759-770 (2015). Newly emerged adult males and females were collected daily and maintained in cages with water and diet until they were specific ages for experimentation. Sugars used in this study, meso-erythritol (>99%), sucrose (>99%), and sucralose (>99%), were purchased from Fisher Scientific (Hampton, N.H.).
Different sugar formulations on the fly survivorship: Ten 5-day old flies (5 males and 5 females) were introduced into a plastic vial and given a tube (1.5 ml) containing different water-based solutions. Two combinations of erythritol (Ery) mixed with sucrose (Suc) or sucralose (Sul) were introduced to flies in a plastic vial for 7 days (FIG. 1). For the first experiment various pairs were tested (Table 1): Suc 0.5 M, Ery 0.5 M, Ery 1.5 M+Suc 0.5 M, and Ery 1.5 M+Suc 0.1 M. For the second experiment various pairs were tested (Table 2): Suc 0.5 M, Ery 0.5 M, Sul 0.5 M, Sul 0.1 M, Ery 1.5 M+Sul 0.5 M, Ery 1.5 M+Sul 0.1 M, Ery 2.0 M+Sul 0.1 M, and Ery 2.0 M+Sul 0.01 M. Survivorship of flies was checked daily for 7 days. Each pair per experiment was replicated at least three times.

Drosophila suzukii [2] = assay: Fly mortality in the cage experiment; assay type: in vivo; settings: 7 days (FIG. 7)
Method: Materials and Methods. Flies and sugars: Drosophila suzukii used in these experiments were from a colony maintained at 22±5° C. under a photoperiod of L:D 16:8 h, and a relative humidity of 60±5% RH at the Horticultural Crops Research Unit, USDA ARS in Corvallis, Oreg. Wildtype flies collected from infested fruits in Corvallis, Oreg. were used to start the colony. Standard rearing methods and diet are described by Woltz, J. M., et al., Journal of Applied Entomology, 139:759-770 (2015). Newly emerged adult males and females were collected daily and maintained in cages with water and diet until they were specific ages for experimentation. […] Effect of erythritol formulations with sucrose or sucralose on fly mortality in the cage experiment: Two combinations of erythritol (Ery) mixed with sucrose (Suc) or sucralose (Sul) were introduced to ten flies in a cage (25 cm wide×25 cm deep×28 cm height) for 7 days (FIG. 6). […] The cage experiment shared similar results with both the vial and cup experiments (FIG. 2, FIG. 5, FIG. 7). In summary, the erythritol/sucralose formulation will not affect human health. The erythritol/sucralose formulation can be directly applied as an insecticide for insects such as Drosophila suzukii. […] The formulations can be used as a phagostimulant with conventional or biological insecticides. […]

## OC[C@@H](O)[C@@H](O)CO [Erythritol (Ery) 0.5M, meso-erythritol]
Drosophila suzukii [1]
  Statistical comparison of mortalities in words: statistically the same values
Drosophila suzukii [2]
  Statistical comparison of results in words: statistically similar

## OC[C@H]1O[C@H](O[C@]2(CCl)O[C@H](CCl)[C@@H](O)[C@@H]2O)[C@H](O)[C@@H](O)[C@H]1Cl [Sucralose (Sul) 0.5M, sucralose]
Drosophila suzukii [1]
  Statistical comparison of mortalities in words: statistically the same effect

## OC[C@H]1O[C@@](CO)(O[C@H]2O[C@H](CO)[C@@H](O)[C@H](O)[C@H]2O)[C@@H](O)[C@@H]1O [Sucrose (Suc) 0.5M, sucrose]
Drosophila suzukii [1]; Day1
  Mortality (%) of flies when fed different sugar formulations: 1.3%
Drosophila suzukii [1]; Day2
  Mortality (%) of flies when fed different sugar formulations: 1.3%
Drosophila suzukii [1]; Day3
  Mortality (%) of flies when fed different sugar formulations: 3.8%
Drosophila suzukii [1]; Day4
  Mortality (%) of flies when fed different sugar formulations: 5.0%
Drosophila suzukii [1]; Day5
  Mortality (%) of flies when fed different sugar formulations: 5.0%
Drosophila suzukii [1]; Day6
  Mortality (%) of flies when fed different sugar formulations: 6.3%
Drosophila suzukii [1]; Day7
  Mortality (%) of flies when fed different sugar formulations: 11.3%
Drosophila suzukii [1]; Day 1
  Mortality (%) of flies when fed different erythritol and sucralose formulations: 0.0%
Drosophila suzukii [1]; Day 2
  Mortality (%) of flies when fed different erythritol and sucralose formulations: 2.5%
Drosophila suzukii [1]; Day 3
  Mortality (%) of flies when fed different erythritol and sucralose formulations: 2.5%
Drosophila suzukii [1]; Day 4
  Mortality (%) of flies when fed different erythritol and sucralose formulations: 2.5%
Drosophila suzukii [1]; Day 5
  Mortality (%) of flies when fed different erythritol and sucralose formulations: 5.0%
Drosophila suzukii [1]; Day 6
  Mortality (%) of flies when fed different erythritol and sucralose formulations: 5.0%
Drosophila suzukii [1]; Day 7
  Mortality (%) of flies when fed different erythritol and sucralose formulations: 6.3%

## OC[C@H]1O[C@H](O[C@]2(CCl)O[C@H](CCl)[C@@H](O)[C@@H]2O)[C@H](O)[C@@H](O)[C@H]1Cl [Sul 0.1M, sucralose]
Drosophila suzukii [1]
  Statistical comparison of mortalities in words: statistically the same effect
